In brackets after ≈: the same amount, converted by molar mass.
Tests used:
[1] = test system: MCF-7 human breast cancer cells (fatty acid synthesis pathway activity); assay: [14C]acetate incorporation into total lipids; assay type: cell-based; settings: MCF7, [14C]acetate incorporation into lipids
Description: Measurement of [^14C]acetate Incorporation into Total Lipids and Determination of IC50 of Compounds. This assay measures the incorporation of [^14C]acetate into total lipids and is a measure of fatty acid synthesis pathway activity in vitro. It is utilized to measure inhibition of fatty acid synthesis in vitro.
MCF-7 human breast cancer cells cultured as above, are plated at 5×10^4 cells per well in 24-well plates. Following overnight incubation, the compounds to be tested, solubilized in DMSO, are added at 5, 10, and 20 μg/ml in triplicate, with lower concentrations tested if necessary. DMSO is added to triplicate wells for a vehicle control. C75 is run at 5 and 10 μg/ml in triplicate as positive controls. After 4 hours of incubation, 0.25 μCi of [^14C]acetate (10 μl volume) is added to each well.
After 2 hours of additional incubation, medium is aspirated from the wells and 800 μl of chloroform:methanol (2:1) and 700 μl of 4 mM MgCl2 is added to each well. Contents of each well are transferred to 1.5 Eppendorf tubes, and spun at full-speed for 2 minutes in a high-speed Eppendorf Microcentrifuge 5415D. After removal of the aqueous (upper) layer, an additional 700 μl of chloroform:methanol (2:1) and 500 μl of 4 mM MgCl2 are added to each tube and then centrifuged for 1 minutes as above. The aqueous layer is removed with a Pasteur pipette and discarded. An additional 400 μl of chloroform:methanol (2:1) and 200 μl of 4 mM MgCl2 are added to each tube, then centrifuged and aqueous layer is discarded. The lower (organic) phase is transferred into a scintillation vial and dried at 40° C. under N2 gas. Once dried, 3 ml of scintillant (APB #NBC5104) is added and vials are counted for ^14C. The Beckman Scintillation counter calculates the average cpm values for triplicates.
The IC50 for the compounds is defined as the concentration of drug leading to a 50% reduction in [^14C]acetate incorporation into lipids compared to controls. This is determined by plotting the average cpm for each inhibitor concentration tested, performing linear regression and computing the best-fit line, r^2 values, and 95% confidence intervals. The average cpm values are computed by the Beckman scintillation counter (Model LS6500) for each compound concentration. Computation of linear regression, best-fit line, r^2, and 95% confidence intervals are calculated using Prism Version 3.0 (Graph Pad Software).

[2] = Solubility problem noted during the assays; assay type: physicochemical; settings: for solubility: read-out: Sol Prob (solubility problem at concentration)
[3] = test system: MCF-7 human breast cancer cells; assay: XTT cytotoxicity assay, MCF-7 (M); assay type: cell-based; settings: MCF7, MCF-7, 72 hours
Description: XTT Cytotoxicity Assay The XTT assay is a non-radioactive alternative for the [^51Cr] release cytotoxicity assay. XTT is a tetrazolium salt that is reduced to a formazan dye only by metabolically active, viable cells. The reduction of XTT is measured spectrophotometrically as OD490-OD650. To measure the cytotoxicity of specific compounds against cancer cells, 9×10^3 MCF-7 human breast cancer cells (shown in the tables as “(M)”), obtained from the American Type Culture Collection are plated per well in 96 well plates in DMEM medium with 10% fetal bovine serum, insulin, penicillin, and streptomycin. Following overnight culture at 37° C. and 5% CO2, the compounds to be tested, dissolved in DMSO, are added to the wells in 1 μl volume at the following concentrations: 80, 40, 20, 10, 5, 2.5, 1.25, and 0.625 μg/ml in triplicate. Additional concentrations are tested if required. 1 μl of DMSO is added to triplicate wells are the vehicle control. C75 is run at 40, 20, […], and 5 μg/ml in triplicate as positive controls. After 72 hours of incubation, cells are incubated for 4 hours with the XTT reagent as per manufacturer's instructions (Cell Proliferation Kit II (XTT) Roche). Plates are read at OD490 and OD650 on a Molecular Devices SpectraMax Plus Spectrophotometer. Three wells containing the XTT reagent without cells serve as the plate blank. XTT data are reported as OD490-OD650. Averages and standard error of the mean are computed using SOFTmax Pro software (Molecular Dynamics). The IC50 for the compounds is defined as the concentration of drug leading to a 50% reduction in OD490-OD650 compared to controls. The OD490-OD650 are computed by the SOFTmax PRO software (Molecular Devices) for each compound concentration. IC50 is calculated by linear regression, plotting the FAS activity as percent of control versus drug concentrations. Linear regression, best-fit line, r^2, and 95% confidence intervals are determined using Prism Version 3.0 (Graph Pad Software).

Weight loss screen = assay type: in vivo, Balb/C mice; settings: 60 mg/kg intraperitoneally
Description: Weight Loss Screen Balb/C mice (Jackson Labs) are utilized for the initial weight loss screening. Animals are housed in temperature and 12 hour day/night cycle rooms and fed mouse chow and water ad lib. Three mice are utilized for each compound tested with vehicle controls in triplicate per experiment. For the experiments, mice are housed separately for each compound tested three mice to a cage. Compounds are diluted in DMSO at 10 mg/ml and mice are injected intraperitoneally with 60 mg/kg in approximately 100 μl of DMSO or with vehicle alone. Mice are observed and weighed daily; average weights and standard errors are computed with Excel (Microsoft). The experiment continues until treated animals reach their pretreatment weights.

Row | IC50 [1] | Solubility remark on FAS IC50 ([2]; FAS assay) | solubility [2] | Structure (SMILES) | IC50 [3] | Weight Loss (Weight loss screen; day 1) | Weight Loss (Weight loss screen; day 4)
1 | 19.2 ± 2 µg/mL (≈ 46.8 µM) | Limited by Solubility | – | CCCCCCCCC1(C)SC(=O)C=C1OCC(=O)Nc1ccc(Cl)cc1 (stereo not shown) | 5.2 ± 2 µg/mL (≈ 12.7 µM) | 60 mg/kg: 0.2% (day 1) | –
2 | 23 µg/mL (≈ 56.7 µM) | – | – | CCCCCCCCC1(C)SC(=O)C=C1OCC(=O)Nc1ccc(OC)cc1 (stereo not shown) | 9.7 µg/mL (≈ 23.9 µM) | – | –
3 | < 2.5 µg/mL | – | – | CCCCCCCCC1(C)SC(=O)C=C1OCC(=O)Nc1ccc(C(F)(F)F)cc1 (stereo not shown) | 2.2 µg/mL (≈ 4.96 µM) | – | –
4 | > 80 µg/mL | – | 80 µg/mL (≈ 180 µM) | CCCCCCCC[C@]1(C)SC(=O)C=C1OCC(=O)Nc1ccccc1C(F)(F)F | 17.6 µg/mL (≈ 39.7 µM) | – | –
5 | > 80 µg/mL | – | – | CCCCCCCC[C@]1(C)SC(=O)C=C1OCC(=O)Nc1ccccc1OC(F)(F)F | > 80 µg/mL | – | –
6 | 12.3 µg/mL (≈ 27.7 µM) | – | 80 µg/mL (≈ 180 µM) | CCCCCCCCC1(C)SC(=O)C=C1OCC(=O)Nc1cccc(C(F)(F)F)c1 (stereo not shown) | 5.9 µg/mL (≈ 13.3 µM) | – | –
7 | > 80 µg/mL | – | 40 µg/mL (≈ 94.9 µM) | CCCCCCCCC1(C)SC(=O)C=C1OCC(=O)Nc1ccccc1SC (stereo not shown) | 26.9 µg/mL (≈ 63.8 µM) | – | –
8 | > 80 µg/mL | – | 40 µg/mL (≈ 94.9 µM) | CCCCCCCCC1(C)SC(=O)C=C1OCC(=O)Nc1ccc(SC)cc1 (stereo not shown) | 7.9 µg/mL (≈ 18.7 µM) | – | –
9 | – | – | 40 µg/mL (≈ 90 µM) | CCCCCCCCC1(C)SC(=O)C=C1OCC(=O)Nc1ccc(Cl)cc1Cl (stereo not shown) | 16.8 µg/mL (≈ 37.8 µM) | – | –

The remaining lines, values behind:

Row | Structure (SMILES) | IC50 [1] | Solubility remark on FAS IC50 ([2]; FAS assay) | solubility [2] | IC50 [3] | Weight Loss (Weight loss screen; day 1) | Weight Loss (Weight loss screen; day 4)
10 | CCCCCCCCOc1ccc(NC(=O)COC2=CC(=O)SC2(C)CCCCCCCC)cc1 (stereo not shown) | > 80 µg/mL | – | – | > 80 µg/mL | – | –
11 | CCCCCCCCC1(C)SC(=O)C=C1OCC(=O)Nc1ccc(-c2cccs2)cc1 (stereo not shown) | 80.2 µg/mL (≈ 175 µM) | – | – | > 80 µg/mL | – | –
12 | CCCCCCCCC1(C)SC(=O)C=C1OCC(=O)Nc1ccc(Oc2ccc(Cl)cc2)cc1 (stereo not shown) | > 80 µg/mL | – | – | 3.1 µg/mL (≈ 6.17 µM) | – | 60 mg/kg: 3.1% (day 4)
13 | CCCCCCCCC1(C)SC(=O)C=C1OCC(=O)Nc1ccc(OC(F)(F)F)cc1 (stereo not shown) | 8.2 µg/mL (≈ 17.8 µM) | – | – | 1.8 µg/mL (≈ 3.92 µM) | 60 mg/kg: 2.2% (day 1) | –
14 | CCCCCCCCC1(C)SC(=O)C=C1OCC(=O)Nc1ccc2c(c1)OCO2 (stereo not shown) | – | – | – | 8.2 µg/mL (≈ 19.5 µM) | – | –
15 | CCCCCCCCC1(C)SC(=O)C=C1OCC(=O)Nc1ccccc1N1CCCCC1 (stereo not shown) | – | – | – | 18.6 µg/mL (≈ 40.6 µM) | – | –
16 | CCCCCCCCC1(C)SC(=O)C=C1OCC(=O)Nc1ccccc1 (stereo not shown) | – | – | – | 6.2 µg/mL (≈ 16.5 µM) | – | –
17 | CCCCCCCCC1(C)SC(=O)C=C1OCC(=O)Nc1ccc(Cl)cc1C(F)(F)F (stereo not shown) | – | – | – | 9.6 µg/mL (≈ 20.1 µM) | – | –
18 | CCCCCCCCC1(C)SC(=O)C=C1OCC(=O)Nc1cccc(OC(F)(F)F)c1 (stereo not shown) | 17.1 µg/mL (≈ 37.2 µM) | – | 40 µg/mL (≈ 87 µM) | 6.4 µg/mL (≈ 13.9 µM) | – | –
19 | CCCCCCCCC1(C)OC(=O)C=C1OCC(=O)Nc1ccc(Cl)cc1 (stereo not shown) | – | – | 80 µg/mL (≈ 203 µM) | 6 µg/mL (≈ 15.2 µM) | – | –

Source: patent US20110288052A1, “NOVEL COMPOUNDS, PHARMACEUTICAL COMPOSITIONS CONTAINING SAME, AND METHODS OF USE FOR SAME” (priority 2008, published 2011)
